From ChEMBL document CHEMBL5291721, “A preclinical secondary pharmacology resource illuminates target-adverse drug reaction associations of marketed drugs” (Nat Commun, 2023)

Tests used:
[1] = target: T1, Amine oxidase [flavin-containing] A (Homo sapiens, UniProt P21397); format: functional
T1 sequence (P21397 whole entry): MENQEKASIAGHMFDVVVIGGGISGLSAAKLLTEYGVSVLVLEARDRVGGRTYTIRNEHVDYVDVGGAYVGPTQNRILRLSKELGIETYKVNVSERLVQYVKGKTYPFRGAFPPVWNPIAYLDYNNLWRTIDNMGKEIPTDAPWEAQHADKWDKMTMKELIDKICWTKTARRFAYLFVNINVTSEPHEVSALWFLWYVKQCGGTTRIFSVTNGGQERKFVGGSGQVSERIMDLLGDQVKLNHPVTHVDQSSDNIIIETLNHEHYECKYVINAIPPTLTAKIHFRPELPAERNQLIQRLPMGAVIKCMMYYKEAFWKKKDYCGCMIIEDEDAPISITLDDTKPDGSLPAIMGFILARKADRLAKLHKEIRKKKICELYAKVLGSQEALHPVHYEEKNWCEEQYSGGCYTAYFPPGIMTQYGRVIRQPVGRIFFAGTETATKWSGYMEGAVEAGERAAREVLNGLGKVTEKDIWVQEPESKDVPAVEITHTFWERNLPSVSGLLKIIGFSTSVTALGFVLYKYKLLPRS

[2] = target: Histamine H3 receptor (Homo sapiens, UniProt Q9Y5N1)
Sequence of Histamine H3 receptor (Q9Y5N1 whole entry): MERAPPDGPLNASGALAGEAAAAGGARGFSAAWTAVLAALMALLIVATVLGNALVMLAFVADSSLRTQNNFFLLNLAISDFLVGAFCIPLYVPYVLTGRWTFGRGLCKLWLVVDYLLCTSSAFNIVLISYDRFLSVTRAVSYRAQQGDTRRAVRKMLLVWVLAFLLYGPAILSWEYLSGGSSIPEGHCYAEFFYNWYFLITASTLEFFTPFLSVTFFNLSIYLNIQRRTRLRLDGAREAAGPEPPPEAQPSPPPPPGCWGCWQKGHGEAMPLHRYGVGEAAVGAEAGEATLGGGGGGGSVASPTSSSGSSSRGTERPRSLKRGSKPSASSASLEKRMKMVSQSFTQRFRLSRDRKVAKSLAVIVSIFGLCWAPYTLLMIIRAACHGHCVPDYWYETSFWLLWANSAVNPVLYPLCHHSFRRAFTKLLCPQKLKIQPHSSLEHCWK

[3] = target: Voltage-dependent L-type calcium channel subunit alpha-1C (Rattus norvegicus, UniProt P22002); format: functional
[4] = target: T2, 5-hydroxytryptamine receptor 2B (Homo sapiens, UniProt P41595); format: functional, cell-based
T2 sequence (P41595 whole entry): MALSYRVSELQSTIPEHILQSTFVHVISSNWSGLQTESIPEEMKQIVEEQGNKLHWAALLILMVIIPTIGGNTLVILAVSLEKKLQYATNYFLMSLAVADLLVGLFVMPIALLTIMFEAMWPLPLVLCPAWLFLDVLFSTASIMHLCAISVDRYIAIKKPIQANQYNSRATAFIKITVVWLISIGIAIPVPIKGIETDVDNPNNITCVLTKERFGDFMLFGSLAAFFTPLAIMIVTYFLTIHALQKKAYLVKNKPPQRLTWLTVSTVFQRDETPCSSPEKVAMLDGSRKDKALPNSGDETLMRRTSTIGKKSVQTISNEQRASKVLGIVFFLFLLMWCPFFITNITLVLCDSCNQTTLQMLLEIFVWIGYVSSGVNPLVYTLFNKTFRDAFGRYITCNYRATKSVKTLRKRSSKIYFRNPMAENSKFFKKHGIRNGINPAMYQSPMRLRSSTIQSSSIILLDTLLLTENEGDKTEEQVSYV

[5] = target: Neuronal acetylcholine receptor subunit alpha-4 (Homo sapiens, UniProt P43681)
Sequence of Neuronal acetylcholine receptor subunit alpha-4 (P43681 whole entry): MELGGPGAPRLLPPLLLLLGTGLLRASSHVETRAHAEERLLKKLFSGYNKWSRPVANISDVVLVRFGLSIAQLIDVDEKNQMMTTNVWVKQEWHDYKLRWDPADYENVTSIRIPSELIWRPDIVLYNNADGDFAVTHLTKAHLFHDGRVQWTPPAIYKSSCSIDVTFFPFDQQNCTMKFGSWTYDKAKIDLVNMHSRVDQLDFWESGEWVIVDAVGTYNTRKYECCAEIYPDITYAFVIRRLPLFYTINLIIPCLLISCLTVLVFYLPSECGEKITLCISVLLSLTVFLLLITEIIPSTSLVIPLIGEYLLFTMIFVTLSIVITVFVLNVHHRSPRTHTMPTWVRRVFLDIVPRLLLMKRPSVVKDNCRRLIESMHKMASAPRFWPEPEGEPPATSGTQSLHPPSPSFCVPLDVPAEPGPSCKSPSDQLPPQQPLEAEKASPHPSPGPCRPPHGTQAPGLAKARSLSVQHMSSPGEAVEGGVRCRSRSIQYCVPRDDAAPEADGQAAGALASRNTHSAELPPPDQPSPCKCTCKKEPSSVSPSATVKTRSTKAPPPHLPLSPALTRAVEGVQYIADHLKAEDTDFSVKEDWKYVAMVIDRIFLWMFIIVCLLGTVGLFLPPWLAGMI

[6] = target: T2, 5-hydroxytryptamine receptor 2B; format: functional, cell-based; remark: listed apart in the source
[7] = target: Mu-type opioid receptor (Homo sapiens, UniProt P35372); assay: biochemical; format: functional
Sequence of Mu-type opioid receptor (P35372 whole entry): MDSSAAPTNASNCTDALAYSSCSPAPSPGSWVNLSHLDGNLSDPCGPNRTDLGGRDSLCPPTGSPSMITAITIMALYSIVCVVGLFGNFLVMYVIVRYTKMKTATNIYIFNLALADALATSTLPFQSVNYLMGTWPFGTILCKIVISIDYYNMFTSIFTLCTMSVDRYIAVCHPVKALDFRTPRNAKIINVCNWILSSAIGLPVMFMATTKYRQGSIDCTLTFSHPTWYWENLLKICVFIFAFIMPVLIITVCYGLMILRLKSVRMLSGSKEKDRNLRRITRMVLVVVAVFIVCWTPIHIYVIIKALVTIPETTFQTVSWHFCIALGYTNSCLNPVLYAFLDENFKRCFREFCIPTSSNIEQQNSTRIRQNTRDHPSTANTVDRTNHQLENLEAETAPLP

[8] = target: Histamine H2 receptor (Homo sapiens, UniProt P25021); format: functional, cell-based
Sequence of Histamine H2 receptor (P25021 whole entry): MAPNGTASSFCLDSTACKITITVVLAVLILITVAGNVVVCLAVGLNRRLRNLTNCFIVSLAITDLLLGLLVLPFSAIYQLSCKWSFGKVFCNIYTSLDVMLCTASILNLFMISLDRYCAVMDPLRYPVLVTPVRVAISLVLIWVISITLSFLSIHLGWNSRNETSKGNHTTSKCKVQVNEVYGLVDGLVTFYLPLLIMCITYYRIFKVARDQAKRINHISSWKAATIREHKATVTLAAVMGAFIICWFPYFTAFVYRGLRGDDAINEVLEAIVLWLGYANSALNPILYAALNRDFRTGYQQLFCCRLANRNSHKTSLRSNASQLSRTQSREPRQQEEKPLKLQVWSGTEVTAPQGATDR

[9] = target: Kappa-type opioid receptor (Homo sapiens, UniProt P41145)
Sequence of Kappa-type opioid receptor (P41145 whole entry): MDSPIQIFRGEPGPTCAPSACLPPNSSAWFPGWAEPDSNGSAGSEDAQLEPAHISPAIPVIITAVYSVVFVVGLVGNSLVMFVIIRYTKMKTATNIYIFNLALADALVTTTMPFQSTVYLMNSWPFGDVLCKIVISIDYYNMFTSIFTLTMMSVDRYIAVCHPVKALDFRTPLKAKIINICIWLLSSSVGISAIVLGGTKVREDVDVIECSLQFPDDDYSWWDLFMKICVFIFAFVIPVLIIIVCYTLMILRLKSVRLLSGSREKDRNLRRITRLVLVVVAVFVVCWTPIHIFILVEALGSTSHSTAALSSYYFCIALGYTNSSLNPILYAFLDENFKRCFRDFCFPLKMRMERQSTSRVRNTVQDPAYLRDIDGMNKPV

[10] = target: T2, 5-hydroxytryptamine receptor 2B; format: functional, cell-based; remark: listed apart in the source
[11] = target: D(3) dopamine receptor (Homo sapiens, UniProt P35462)
Sequence of D(3) dopamine receptor (P35462 whole entry): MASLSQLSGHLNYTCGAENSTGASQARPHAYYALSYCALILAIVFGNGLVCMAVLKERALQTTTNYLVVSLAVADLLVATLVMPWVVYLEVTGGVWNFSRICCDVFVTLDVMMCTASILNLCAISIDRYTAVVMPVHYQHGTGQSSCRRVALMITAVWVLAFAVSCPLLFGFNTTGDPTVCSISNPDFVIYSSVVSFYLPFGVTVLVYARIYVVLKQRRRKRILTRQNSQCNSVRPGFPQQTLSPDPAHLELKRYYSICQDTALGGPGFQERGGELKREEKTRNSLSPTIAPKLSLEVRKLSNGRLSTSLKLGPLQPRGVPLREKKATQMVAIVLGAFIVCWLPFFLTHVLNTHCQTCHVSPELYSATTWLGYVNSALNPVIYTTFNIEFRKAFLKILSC

[12] = target: T3, Thromboxane A2 receptor (Homo sapiens, UniProt P21731); format: functional, cell-based
T3 sequence (P21731 whole entry): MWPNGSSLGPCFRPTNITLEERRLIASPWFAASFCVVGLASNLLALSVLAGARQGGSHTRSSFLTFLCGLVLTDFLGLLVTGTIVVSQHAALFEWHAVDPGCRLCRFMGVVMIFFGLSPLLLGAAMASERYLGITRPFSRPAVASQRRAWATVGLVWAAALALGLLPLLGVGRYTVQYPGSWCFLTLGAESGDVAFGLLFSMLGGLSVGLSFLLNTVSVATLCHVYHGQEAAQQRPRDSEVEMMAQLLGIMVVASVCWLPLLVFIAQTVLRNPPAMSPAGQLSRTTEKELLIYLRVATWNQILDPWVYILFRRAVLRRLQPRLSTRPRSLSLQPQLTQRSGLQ

[13] = target: Prostaglandin G/H synthase 1 (Homo sapiens, UniProt P23219); format: functional
Sequence of Prostaglandin G/H synthase 1 (P23219 whole entry): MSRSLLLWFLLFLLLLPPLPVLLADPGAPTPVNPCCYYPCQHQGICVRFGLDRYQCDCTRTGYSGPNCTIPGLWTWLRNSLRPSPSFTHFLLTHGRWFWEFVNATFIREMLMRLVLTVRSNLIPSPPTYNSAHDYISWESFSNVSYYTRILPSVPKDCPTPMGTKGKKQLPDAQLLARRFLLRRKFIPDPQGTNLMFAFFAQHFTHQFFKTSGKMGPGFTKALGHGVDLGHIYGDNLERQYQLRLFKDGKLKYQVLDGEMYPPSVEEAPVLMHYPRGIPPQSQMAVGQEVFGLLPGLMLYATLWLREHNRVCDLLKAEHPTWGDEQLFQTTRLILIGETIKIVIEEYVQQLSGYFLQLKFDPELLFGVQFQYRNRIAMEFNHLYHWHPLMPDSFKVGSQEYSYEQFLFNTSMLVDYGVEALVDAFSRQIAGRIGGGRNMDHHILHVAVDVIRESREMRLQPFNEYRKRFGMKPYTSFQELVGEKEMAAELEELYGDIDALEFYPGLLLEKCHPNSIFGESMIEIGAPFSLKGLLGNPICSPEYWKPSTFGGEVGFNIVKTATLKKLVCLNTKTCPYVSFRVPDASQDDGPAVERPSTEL

[14] = target: Sodium-dependent noradrenaline transporter (Homo sapiens, UniProt P23975)
Sequence of Sodium-dependent noradrenaline transporter (P23975 whole entry): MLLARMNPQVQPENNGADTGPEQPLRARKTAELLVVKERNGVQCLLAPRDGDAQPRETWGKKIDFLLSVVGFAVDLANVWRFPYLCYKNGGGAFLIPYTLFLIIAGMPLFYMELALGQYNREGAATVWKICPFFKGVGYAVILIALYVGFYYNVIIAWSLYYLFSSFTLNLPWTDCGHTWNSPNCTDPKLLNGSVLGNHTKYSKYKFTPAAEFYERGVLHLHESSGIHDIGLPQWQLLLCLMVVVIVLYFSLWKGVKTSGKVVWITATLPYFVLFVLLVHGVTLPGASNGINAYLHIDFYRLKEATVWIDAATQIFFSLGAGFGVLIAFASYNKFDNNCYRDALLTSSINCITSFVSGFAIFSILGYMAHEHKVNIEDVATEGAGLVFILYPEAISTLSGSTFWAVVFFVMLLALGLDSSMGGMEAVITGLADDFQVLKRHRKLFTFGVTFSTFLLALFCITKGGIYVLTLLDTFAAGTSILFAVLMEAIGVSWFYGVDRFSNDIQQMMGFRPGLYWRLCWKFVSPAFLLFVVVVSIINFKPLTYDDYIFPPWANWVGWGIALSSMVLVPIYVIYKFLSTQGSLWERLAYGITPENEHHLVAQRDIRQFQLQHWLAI

[15] = target: T4, Alpha-2A adrenergic receptor (Homo sapiens, UniProt P08913)
T4 sequence (P08913 whole entry): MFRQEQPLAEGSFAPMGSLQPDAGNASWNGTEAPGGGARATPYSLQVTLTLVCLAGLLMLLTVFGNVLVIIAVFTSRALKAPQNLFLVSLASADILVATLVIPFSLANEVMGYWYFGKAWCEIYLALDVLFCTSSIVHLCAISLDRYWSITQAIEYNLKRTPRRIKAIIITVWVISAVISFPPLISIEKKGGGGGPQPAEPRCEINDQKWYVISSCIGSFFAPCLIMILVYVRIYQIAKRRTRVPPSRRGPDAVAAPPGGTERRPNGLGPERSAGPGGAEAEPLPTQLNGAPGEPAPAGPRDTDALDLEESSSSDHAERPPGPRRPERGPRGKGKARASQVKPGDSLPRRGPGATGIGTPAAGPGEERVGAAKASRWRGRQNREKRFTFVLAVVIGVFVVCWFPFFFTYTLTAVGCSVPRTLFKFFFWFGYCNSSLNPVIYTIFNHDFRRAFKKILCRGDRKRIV

[16] = target: T3, Thromboxane A2 receptor; format: functional, cell-based; remark: listed apart in the source

Measured: AC50
Note: assay procedure not described here.

CCN(CC)C(=O)C1(c2ccccc2)CC1CN (stereo unspecified)
> 30 µM: [1] | [2] | [3] | [4] | [5] | [6] | [7] | [8] | [9]

CN(C)C(=O)Oc1cccc([N+](C)(C)C)c1 [NEOSTIGMINE]
> 30 µM: [10] | [11] | [12] | [13] | [14] | [15] | [16]
